From article PMC8231556, “Inhibiting Endothelial Cell Function in Normal and Tumor Angiogenesis Using BMP Type I Receptor Macrocyclic Kinase Inhibitors” (Cancers, 2021)

Experiments:
[1] = test system: MDA-MB-231 breast cancer cell-induced angiogenesis; assay: Tumor angiogenesis in zebrafish (MDA-MB-231 xenograft); type: in vivo; details: 0.5 µM, 3 days, MDA-MB-231 in perivitelline space
Method: Two days post fertilization (dpf), four hundred mCherry-labeled human breast cancer MDA-MB-231 cells were injected into the perivitelline space of Tg (fli:EGFP) zebrafish embryos as previously described. The properly injected zebrafishes were randomly divided into five groups, and each group contained at least 30 embryos. […] The egg water was refreshed daily, and the abnormal embryos were removed. After 3 days, the embryos were fixed in 4% PFA for 2 h at room temperature and stored at 4 °C in PBS. The tumor cell-induced angiogenesis in the perivitelline space was imaged with an Andor Dragonfly 500 spinning disk confocal using 488 nm and 561 nm lasers. At least ten embryos per group were randomly selected and scanned. The experiments were repeated twice with similar results. Tumor angiogenesis was quantified using ImageJ, and the relative vasculature density was calculated according to the following formula: Relative vasculature density (%) = 100% × (Vessel intensity within the perivitelline space)/(tumor cells intensity within the perivitelline space).

HUVECs = assay: Chemotactic invasion assay; type: cell-based, human; details: 0.5 µM, towards full medium with 20% FBS
Method: The invasion potential of ECs was investigated using the chemotactic invasion assay, according to the IncuCyte instruction manual. Briefly, the top layer of an IncuCyte ClearView 96-well chemotaxis plate (4582, Essen Bioscience) was coated with 1% gelatin for 30 min. One thousand five hundred HUVEC cells/well were seeded on the gelatin-coated top plate and covered with 60 µL M199 medium with 1% FBS containing 0.5 µM of the indicated compounds or vehicle control (DMSO). Then 200 µL/well of M199 supplemented with 20% FBS, 100 IU/mL penicillin/streptomycin, 0.01 IU/mL Heparine, and BPE with 0.5 µM of the indicated compounds was added to the bottom plate. The plate was placed in the IncuCyte, and whole well images of both top and bottom membranes were captured every 4 h for one day using the IncuCyte Chemotaxis imaging protocol. Finally, the top and bottom cell areas were quantified with the instrument’s software using automated algorithms. The ECs invasive behavior was presented as total bottom cell area normalized to the initial top cell area. All the experiments were repeated at least three times, and representative results are shown.

DDR2 = biological target: T1, DDR2 (Homo sapiens, UniProt Q16832); assay: radiometric kinase profiling (33 PanQinase); type: biochemical; details: read-out: Inhibitory effect (%) DDR2
T1 construct: purchased Proqinase, Germany
T1 sequence (Q16832 22-855): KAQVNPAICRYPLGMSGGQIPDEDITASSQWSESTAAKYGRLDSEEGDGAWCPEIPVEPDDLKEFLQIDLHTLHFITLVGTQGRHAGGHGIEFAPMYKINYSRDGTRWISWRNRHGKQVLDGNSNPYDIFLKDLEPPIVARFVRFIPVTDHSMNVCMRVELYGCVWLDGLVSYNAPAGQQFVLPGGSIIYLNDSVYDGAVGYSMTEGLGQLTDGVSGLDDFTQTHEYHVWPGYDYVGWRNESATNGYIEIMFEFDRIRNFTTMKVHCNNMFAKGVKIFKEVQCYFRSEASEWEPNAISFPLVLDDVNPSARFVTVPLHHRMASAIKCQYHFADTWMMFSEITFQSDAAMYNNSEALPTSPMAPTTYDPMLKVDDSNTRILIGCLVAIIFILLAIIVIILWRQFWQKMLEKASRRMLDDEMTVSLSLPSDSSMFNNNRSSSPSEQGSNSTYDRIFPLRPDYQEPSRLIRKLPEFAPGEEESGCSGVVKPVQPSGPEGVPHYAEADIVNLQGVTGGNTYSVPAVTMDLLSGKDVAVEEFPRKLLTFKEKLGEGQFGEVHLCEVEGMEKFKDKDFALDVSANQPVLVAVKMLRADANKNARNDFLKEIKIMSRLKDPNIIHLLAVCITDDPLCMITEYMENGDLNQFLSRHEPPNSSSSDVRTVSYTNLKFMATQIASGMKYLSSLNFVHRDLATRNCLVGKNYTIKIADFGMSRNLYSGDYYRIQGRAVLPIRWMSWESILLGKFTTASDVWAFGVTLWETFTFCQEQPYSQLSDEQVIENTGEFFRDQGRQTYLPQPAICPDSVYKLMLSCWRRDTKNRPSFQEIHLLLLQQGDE
In short: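 Enzyme/substrate mixes were incubated with [γ-33P]-ATP and compound (added as a 0.1 μM solution in 10% DMSO) at 30 °C for 60 min, then stopped with H3PO4 and washed with NaCl. 33P incorporation was scintillation-counted, and residual activity (%) was normalized to untreated control and background.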

SMILES	effect on cancer cell-induced angiogenesis (relative vasculature density) [1]	effect on HUVEC chemotactic invasion (HUVECs)	inhibition at 0.1 µM (DDR2) [%]
CN1CCC(=O)NCCNc2ccn3ncc(c3n2)-c2cccc(c2)C1 [OD29]	significantly inhibited	similarly blocked	12.9
c1ccc2c(-c3cnn4cc(-c5ccc(N6CCNCC6)cc5)cnc34)ccnc2c1 [LDN-193189, reference compound]	–	significantly compromised	10.1
CNC(=O)c1ccccc1Sc1ccc2c(/C=C/c3ccccn3)n[nH]c2c1 [Axitinib, reference compound]	markedly inhibited	significantly compromised	–
CN1CCc2cccc(c2)Nc2nccc(n2)N2CCCc3cc(ccc32)C1 [OD16]	significantly inhibited	similarly blocked	33.5
